Assay results as given in ChEMBL document CHEMBL1201862, “PubChem BioAssay data set” (2004).
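Where inhibition never reached the appropriate level, the endpoint shown equals the highest concentration tested. Otherwise, values were interpolated linearly from a five-concentration, 48-hour dose response in 96-well plates. Here, GI50 denotes the concentration required for 50% inhibition of growth.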 Active and inactive are the calls of the source. No stated cut-off is given here; in the data, active = GI50 up to about 1.1 µM and inactive = higher.

Experiments:
Test in all cases: growth of human tumour cells (NCI), 48 h
[1] = system: UACC-62
[2] = system: HCT-15
[3] = system: CAKI-1
[4] = system: MOLT-4
[5] = system: IGROV-1
[6] = system: OVCAR-4
[7] = system: HOP-92
[8] = system: ACHN
[9] = system: M14
[10] = system: SNB-19
[11] = system: NCI-H522
[12] = system: SW-620
[13] = system: LXFL 529
[14] = system: DMS-273
[15] = system: HCT-116
[16] = system: LOX IMVI
[17] = system: OVCAR-3

Row | SMILES | GI50 [1] | GI50 [2] | GI50 [3] | GI50 [4] | GI50 [5] | GI50 [6] | GI50 [7] | GI50 [8] | GI50 [9] | GI50 [10] | GI50 [11] | GI50 [12] | GI50 [13] | GI50 [14] | GI50 [15] | GI50 [16] | GI50 [17]
1 | Cn1c(=O)n(C2(C)C[Se]C2)c2ccccc21 | > 100 µM (inactive) | > 100 µM | > 100 µM (inactive) | > 100 µM (inactive) | > 100 µM (inactive) | > 100 µM (inactive) | > 100 µM (inactive) | > 100 µM (inactive) | > 100 µM (inactive) | > 100 µM (inactive) | > 100 µM (inactive) | > 100 µM (inactive) | > 100 µM (inactive) | > 100 µM (inactive) | > 100 µM (inactive) | > 100 µM (inactive) | –
2 | CC(C)(C)Sc1nnc(SC(C)(C)C)c2c(SC(C)(C)C)nnc(O)c12 | 9.91 µM (inactive) | 4.31 µM | 3.58 µM (inactive) | 3.37 µM (inactive) | 8.51 µM (inactive) | 2.16 µM (inactive) | 2.49 µM (inactive) | – | 14.8 µM (inactive) | 11.6 µM (inactive) | 3.61 µM (inactive) | 6.87 µM (inactive) | 10.6 µM (inactive) | 7.8 µM (inactive) | 3.78 µM (inactive) | 11.7 µM (inactive) | 10.7 µM (inactive)
3 | Cc1cc2oc(-c3ccccc3)c(C)c(=O)c2c2c1OC(C)(C)S2 | > 100 µM (inactive) | > 100 µM | – | 60.3 µM (inactive) | > 100 µM (inactive) | > 100 µM (inactive) | 27.2 µM (inactive) | > 100 µM (inactive) | > 100 µM (inactive) | > 100 µM (inactive) | 72.3 µM (inactive) | > 100 µM (inactive) | > 100 µM (inactive) | 71.9 µM (inactive) | 71 µM (inactive) | > 100 µM (inactive) | > 100 µM (inactive)
4 | CCOC(=O)C(C(=O)OCC)P(=S)(S)c1ccccc1 (stereo unspecified) | > 100 µM (inactive) | – | > 100 µM (inactive) | > 100 µM (inactive) | > 100 µM (inactive) | > 100 µM (inactive) | > 100 µM (inactive) | > 100 µM (inactive) | – | > 100 µM (inactive) | > 100 µM (inactive) | > 100 µM (inactive) | > 100 µM (inactive) | > 100 µM (inactive) | – | > 100 µM (inactive) | –
5 | O=C1OC2C(O)COC2(O)C1(O)Cc1c[nH]c2ccccc12.O=C1OC2C(O)COC2(OCc2c[nH]c3ccccc23)C1O (stereo unspecified) | > 100 µM (inactive) | > 100 µM | > 100 µM (inactive) | > 100 µM (inactive) | > 100 µM (inactive) | > 100 µM (inactive) | > 100 µM (inactive) | – | > 100 µM (inactive) | > 100 µM (inactive) | > 100 µM (inactive) | > 100 µM (inactive) | > 100 µM (inactive) | > 100 µM (inactive) | > 100 µM (inactive) | > 100 µM (inactive) | > 100 µM (inactive)
6 | OC12c3ccccc3C1CCCCCCCCCC21OCCO1 (stereo unspecified) | > 100 µM (inactive) | > 100 µM | > 100 µM (inactive) | > 100 µM (inactive) | > 100 µM (inactive) | > 100 µM (inactive) | – | > 100 µM (inactive) | > 100 µM (inactive) | > 100 µM (inactive) | > 100 µM (inactive) | > 100 µM (inactive) | > 100 µM (inactive) | > 100 µM (inactive) | > 100 µM (inactive) | > 100 µM (inactive) | > 100 µM (inactive)
7 | OC1CCC[C@@H]1Sc1ccccc1 (stereo partly specified) | 57.8 µM (inactive) | > 100 µM | > 100 µM (inactive) | > 100 µM (inactive) | – | > 100 µM (inactive) | > 100 µM (inactive) | > 100 µM (inactive) | > 100 µM (inactive) | > 100 µM (inactive) | – | > 100 µM (inactive) | > 100 µM (inactive) | > 100 µM (inactive) | > 100 µM (inactive) | > 100 µM (inactive) | > 100 µM (inactive)
8 | CC(=O)OC1(C#N)CC2OC1C1C2N=NN1C(=O)OC(C)(C)C (stereo unspecified) | 19.5 µM (inactive) | 21.4 µM | > 100 µM (inactive) | 50.1 µM (inactive) | 35 µM (inactive) | 65.6 µM (inactive) | 27.5 µM (inactive) | > 100 µM (inactive) | 21 µM (inactive) | – | > 100 µM (inactive) | 30.7 µM (inactive) | 33 µM (inactive) | 29 µM (inactive) | 12.5 µM (inactive) | 11.5 µM (inactive) | 47.6 µM (inactive)
9 | N#C/C(=C/c1ccc[nH]1)P(=O)(O)O | > 100 µM (inactive) | > 100 µM | > 100 µM (inactive) | > 100 µM (inactive) | – | > 100 µM (inactive) | > 100 µM (inactive) | > 100 µM (inactive) | > 100 µM (inactive) | > 100 µM (inactive) | > 100 µM (inactive) | > 100 µM (inactive) | > 100 µM (inactive) | > 100 µM (inactive) | > 100 µM (inactive) | > 100 µM (inactive) | > 100 µM (inactive)
10 | CC(C)(O)[C@H](CCO)O[Si](c1ccccc1)(c1ccccc1)C(C)(C)C | 11.3 µM (inactive) | 8.22 µM | – | 4.25 µM (inactive) | 12.2 µM (inactive) | – | 10.8 µM (inactive) | 5.94 µM (inactive) | 12.2 µM (inactive) | 6.01 µM (inactive) | 6.67 µM (inactive) | 12.8 µM (inactive) | 11.6 µM (inactive) | 10.1 µM (inactive) | 4.9 µM (inactive) | 11.1 µM (inactive) | 11.1 µM (inactive)
11 | NNc1nnc(-c2ccccc2)nc1Cc1ccccc1 | 3.62 µM (inactive) | 4.13 µM | 13.8 µM (inactive) | 3.19 µM (inactive) | 10.9 µM (inactive) | 9.14 µM (inactive) | – | 4.04 µM (inactive) | 8.57 µM (inactive) | 6.62 µM (inactive) | 5.4 µM (inactive) | 5.13 µM (inactive) | 3.85 µM (inactive) | 7.26 µM (inactive) | 7.18 µM (inactive) | 3.56 µM (inactive) | 3.61 µM (inactive)
12 | CCCN1CN(C(C(=O)N[C@@H]2C(=O)N3C(C(=O)O)=C(C)CSC23)c2ccccc2)CSC1=S (stereo partly specified) | > 100 µM (inactive) | 42 µM | – | > 100 µM (inactive) | > 100 µM (inactive) | > 100 µM (inactive) | > 100 µM (inactive) | > 100 µM (inactive) | > 100 µM (inactive) | > 100 µM (inactive) | 23 µM (inactive) | – | > 100 µM (inactive) | > 100 µM (inactive) | > 100 µM (inactive) | 47.4 µM (inactive) | 68.1 µM (inactive)
13 | COC(=O)CCC(NC(=S)N/N=C(\C)c1cccs1)C(=O)OC (stereo unspecified) | > 100 µM (inactive) | > 100 µM | – | – | > 100 µM (inactive) | > 100 µM (inactive) | > 100 µM (inactive) | > 100 µM (inactive) | > 100 µM (inactive) | > 100 µM (inactive) | > 100 µM (inactive) | > 100 µM (inactive) | > 100 µM (inactive) | > 100 µM (inactive) | > 100 µM (inactive) | > 100 µM (inactive) | > 100 µM (inactive)
